Source: ChEMBL document CHEMBL1201862, “PubChem BioAssay data set” (2004)
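48-hour exposure; five concentrations; linearly interpolated endpoints. The concentration for 50% growth inhibition is given as GI50.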 Active and inactive are the calls of the source. Rule as the data show it: active = GI50 up to about 1.1 µM and inactive = higher.

Tests used:
Test in all cases: inhibition of tumour cell growth, NCI panel, 48 h
NCI/ADR-RES = system: NCI/ADR-RES
OVCAR-4 = system: OVCAR-4
BT-549 = system: BT-549
MDA-N = system: MDA-N
UACC-62 = system: UACC-62
KM12 = system: KM12
RPMI-8226 = system: RPMI-8226
SF-295 = system: SF-295
M14 = system: M14
ACHN = system: ACHN
K562 = system: K562
RXF 393 = system: RXF 393
SK-MEL-5 = system: SK-MEL-5
CCRF-CEM = system: CCRF-CEM
SR = system: SR
IGROV-1 = system: IGROV-1
LOX IMVI = system: LOX IMVI
SW-620 = system: SW-620
PC-3 = system: PC-3
OVCAR-8 = system: OVCAR-8

Row | Compound | GI50 (NCI/ADR-RES) | GI50 (OVCAR-4) | GI50 (BT-549) | GI50 (MDA-N) | GI50 (UACC-62) | GI50 (KM12) | GI50 (RPMI-8226) | GI50 (SF-295) | GI50 (M14) | GI50 (ACHN) | GI50 (K562) | GI50 (RXF 393) | GI50 (SK-MEL-5) | GI50 (CCRF-CEM) | GI50 (SR) | GI50 (IGROV-1) | GI50 (LOX IMVI) | GI50 (SW-620) | GI50 (PC-3) | GI50 (OVCAR-8)
1 | c1cc(CSSCc2ccncc2)ccn1 | 30.5 µM (inactive) | > 74.3 µM (inactive) | 51.6 µM (inactive) | 12.9 µM (inactive) | 24.9 µM (inactive) | 29.6 µM (inactive) | 9.18 µM (inactive) | 37.6 µM (inactive) | 11.3 µM (inactive) | 42.2 µM (inactive) | 14.8 µM (inactive) | 23.6 µM (inactive) | 17.7 µM (inactive) | 1.24 µM (inactive) | 3.44 µM (inactive) | 30.5 µM (inactive) | 10.6 µM (inactive) | 6.27 µM (inactive) | 21.7 µM (inactive) | 21.7 µM (inactive)
2 | O=C(O)CCCSc1nc2ccccc2s1 | > 100 µM (inactive) | > 100 µM (inactive) | > 100 µM (inactive) | > 100 µM (inactive) | > 100 µM (inactive) | > 100 µM (inactive) | > 100 µM (inactive) | > 100 µM (inactive) | > 100 µM (inactive) | > 100 µM (inactive) | > 100 µM (inactive) | > 100 µM (inactive) | > 100 µM (inactive) | > 100 µM (inactive) | > 100 µM (inactive) | > 100 µM (inactive) | > 100 µM (inactive) | > 100 µM (inactive) | > 100 µM (inactive) | > 100 µM (inactive)
3 | CC(=O)c1c(C)[n+]([O-])c2cc(Cl)c(Cl)cc2[n+]1[O-] | 16.7 µM (inactive) | 15.6 µM (inactive) | 15.6 µM (inactive) | 22.6 µM (inactive) | 18.4 µM (inactive) | 10.3 µM (inactive) | 5.5 µM (inactive) | 26.5 µM (inactive) | 24.6 µM (inactive) | 17.8 µM (inactive) | 19.4 µM (inactive) | > 100 µM (inactive) | 11.6 µM (inactive) | 13.7 µM (inactive) | 6.75 µM (inactive) | 4.98 µM (inactive) | 16.8 µM (inactive) | 17.7 µM (inactive) | 17.7 µM (inactive) | 14.2 µM (inactive)
4 | CCOC(=O)CC[C@@H](NC(=O)c1ccc(NCc2ccc3nc(OC)c(OC)nc3c2)cc1)C(=O)OCC | > 100 µM (inactive) | 38.9 µM (inactive) | > 67.3 µM (inactive) | 30.1 µM (inactive) | 15.5 µM (inactive) | > 100 µM (inactive) | > 94.8 µM (inactive) | 70.8 µM (inactive) | 16.3 µM (inactive) | 22.3 µM (inactive) | 46.8 µM (inactive) | 25.5 µM (inactive) | 13.6 µM (inactive) | 32.6 µM (inactive) | 25.1 µM (inactive) | 22.5 µM (inactive) | 38.9 µM (inactive) | 80.7 µM (inactive) | 56.8 µM (inactive) | > 100 µM (inactive)
5 | CC1(c2cccc(C(F)(F)F)c2)CC(c2cccc(C(F)(F)F)c2)=C(C#N)C(=C(C#N)C#N)N1 (stereo not given) | 19.5 µM (inactive) | 16 µM (inactive) | 18.7 µM (inactive) | 18 µM (inactive) | 16.7 µM (inactive) | 16.5 µM (inactive) | 16.4 µM (inactive) | 16.6 µM (inactive) | 20.2 µM (inactive) | 17.2 µM (inactive) | 15.2 µM (inactive) | 16.8 µM (inactive) | 15.2 µM (inactive) | 2.88 µM (inactive) | 12.6 µM (inactive) | 16.6 µM (inactive) | 17.7 µM (inactive) | 15 µM (inactive) | 19.4 µM (inactive) | 17.5 µM (inactive)
6 | O=C(Nc1nnc(-c2ccc(Cl)cc2)o1)C(SC(=S)N1CCCCC1)c1ccccc1 (stereo not given) | 4.84 µM (inactive) | 22 µM (inactive) | 17.6 µM (inactive) | 15.5 µM (inactive) | 14.2 µM (inactive) | 24.8 µM (inactive) | 11.2 µM (inactive) | 12 µM (inactive) | 13.2 µM (inactive) | 15.7 µM (inactive) | 11.6 µM (inactive) | 24.8 µM (inactive) | 15.7 µM (inactive) | 4.71 µM (inactive) | 3.91 µM (inactive) | 9.38 µM (inactive) | 6.12 µM (inactive) | 33.3 µM (inactive) | 22.4 µM (inactive) | 22.1 µM (inactive)
7 | O=[N+]([O-])c1cccc2nc3ccccc3c(NCCC[N+]3([O-])CCOCC3)c12 | 11.4 µM (inactive) | 0.12 µM (active) | 0.373 µM (active) | 0.13 µM (active) | 0.154 µM (active) | 0.187 µM (active) | 0.193 µM (active) | 0.275 µM (active) | 0.238 µM (active) | 0.65 µM (active) | 0.223 µM (active) | 0.106 µM (active) | 0.0782 µM (active) | 0.0933 µM (active) | 0.026 µM (active) | 0.15 µM (active) | 0.281 µM (active) | 0.131 µM (active) | 0.177 µM (active) | 0.21 µM (active)
8 | CCCCCC(/C=C/C1CCC(=O)C1)OCOCCOC (stereo not given) | 30 µM (inactive) | 47.9 µM (inactive) | 27.9 µM (inactive) | 40.2 µM (inactive) | 36.6 µM (inactive) | 45.9 µM (inactive) | 21.6 µM (inactive) | > 58.7 µM (inactive) | 34 µM (inactive) | 22.3 µM (inactive) | 25.8 µM (inactive) | 34 µM (inactive) | 47.8 µM (inactive) | 35.3 µM (inactive) | > 46.3 µM (inactive) | 42.2 µM (inactive) | 24.3 µM (inactive) | 29.8 µM (inactive) | 42.1 µM (inactive) | 33.9 µM (inactive)
9 | COCn1c2ccc(OC(C)=O)cc2c2c(=O)oc(C)nc21 | > 100 µM (inactive) | > 100 µM (inactive) | > 100 µM (inactive) | > 100 µM (inactive) | > 100 µM (inactive) | > 100 µM (inactive) | > 100 µM (inactive) | > 100 µM (inactive) | > 100 µM (inactive) | > 100 µM (inactive) | > 100 µM (inactive) | > 100 µM (inactive) | > 100 µM (inactive) | > 100 µM (inactive) | > 100 µM (inactive) | > 100 µM (inactive) | > 100 µM (inactive) | > 100 µM (inactive) | > 100 µM (inactive) | > 100 µM (inactive)
10 | C=C1CCC(CC[C@@H]2CC[C@]3(OC2)O[C@@]2(O)CC[C@]3(C)OC2(C)C)C(C)(C)[C@H]1C/C=C1/C(=O)OC[C@@H]1O (stereo not given in full) | 0.906 µM (active) | 0.263 µM (active) | 1.9 µM (inactive) | 1.49 µM (inactive) | 1.34 µM (inactive) | 2.34 µM (inactive) | 1.62 µM (inactive) | 0.348 µM (active) | 2.48 µM (inactive) | 2.65 µM (inactive) | 0.141 µM (active) | 2.19 µM (inactive) | 0.0986 µM (active) | 1.06 µM (active) | 1.54 µM (inactive) | 2.91 µM (inactive) | 0.24 µM (active) | 3.33 µM (inactive) | 2.17 µM (inactive) | 1.22 µM (inactive)
11 | O=CN1CCN(C(=O)c2ccco2)C1=S | 23.4 µM (inactive) | 19.7 µM (inactive) | 5.5 µM (inactive) | 7.62 µM (inactive) | 8.04 µM (inactive) | 6.18 µM (inactive) | 2.24 µM (inactive) | 22.5 µM (inactive) | 8.85 µM (inactive) | 10 µM (inactive) | 3.25 µM (inactive) | 6.64 µM (inactive) | 12.6 µM (inactive) | 3.7 µM (inactive) | 2.11 µM (inactive) | 9.38 µM (inactive) | 3.72 µM (inactive) | 5.82 µM (inactive) | 7.29 µM (inactive) | 16 µM (inactive)
